Assay results reported in patent US20160333019A1, “SYNTHESIS AND FORMULATIONS OF PORPHYRIN COMPOUNDS” (Aeolus Sciences, Inc., priority 2013, published 2016).

How the values were obtained:
Assay type in all cases: physicochemical
[1] = Humidity stability of Form I, dynamic vapor sorption and equilibrium water uptake; conditions: equilibrium
Method: Dynamic Vapor Sorption (DVS). Samples were analyzed using an […]™ DVS-2 gravimetric water sorption analyzer. The relative humidity was adjusted between 2-95% and the weight of sample was continuously monitored and recorded.
Humidity Stability of Form I. Form I was exposed to a typical relative humidity range that most labs will experience e.g. 15-75% at 25° C. Initially the chamber relative humidity was adjusted at 50%. Then the RH was cycled between 15 to 75% and weight was monitored. FIG. 18 illustrates the changes in weight as a function of relative humidity. If the solid is equilibrated at 50% relative humidity the variation in weight would about ±2 wt % between 15-75% RH. Furthermore, an equilibrium study was performed at various relative humidity environments for extended time. Table 5.6 show the equilibrium % water uptake at various humidity levels.

[2] = Solid form stability: vapor diffusion, drying, grinding, competitive slurry, by XRPD
Method: Vapor Diffusion into Solid. Form I was used along with 21 solvent system to evaluate the effect of vapor diffusion on polymorphic behavior. About 2 mL solvent was added to a 20 mL scintillation vial. Furthermore, about 30 mg of solid was added to an open 2 mL HPLC vial and the whole vial was placed inside the bigger vial which contained the solvent. […] Both methanol and ethanol ended up with a mixture of Form I and Form VII. Form I kept its integrity at relative humidity of up to 85% which was generated using saturated potassium chloride.
Drying and Thermal Treatment Studies. A sample was produced using 3 eq. of Mn(III) acetate. The slurry was filtered at ambient without any precautions. The relative humidity of the lab was at 54% at the time of filtration. The wet cake was washed with acetonitrile followed by XRPD analysis which conformed to Form I. The wet cake was dried on a XRPD plate with dome in the over at 40° C., under vacuum for overnight. Then, the sample holder was capped while in the oven followed by XRPD analysis. The resulting solid was a Form III. Then, the cap of the domed holder was opened and allowed the dry solid to be exposed to ambient at RH of 54%.
Wet and Dry Grinding Studies. Form I was ground using mortar and pestle under dry and wet conditions. The solvents in wet grinding were acetonitrile, acetonitrile:water (98:2) and ethyl acetate. […] It should be noted that the grinding was performed under ambient conditions where relative humidity was around 50-60%.
Competitive Slurry Experiments. Mixture of six crystal forms (I, II, III, V, VI and VII) were slurried in three different solvents (acetonitrile acetonitrile:water (98:2) and ethyl acetate), at 25±2° C. for 5 days followed by filtration under nitrogen inert condition. About 20 mg of each polymorph added to the vials. The total weight was […] in each vial and 0.75 mL solvent was added. After filtration, the cake was washed with the same solvent as the one used in the slurry. The cake was placed on a sample holder and sealed using the X-ray transparent dome and analyzed using XRPD. The cap was then removed and solid was dried at 45° C. and under vacuum for half a day. The dry sample was then sealed under nitrogen inert environment and analyzed by XRPD. The next step was to expose the dry sample to about 50% relative humidity for 30 minutes followed by XRPD analysis. In the case of acetonitrile, the wet cake was a new pattern designated as Form IV. In acetonitrile:water (98:2), the resulting solid was low crystalline Form I. It seemed that 2 vol % water was not enough to result in a crystalline hydrate. In the case of ethyl acetate, the solid was also low crystalline Form I plus a few extra peaks. The water in starting Form I could have been enough to result in a low crystalline Form I with some extra peaks of the starting forms in hydrophobic ethyl acetate. This was not observed in neat acetonitrile due to affinity of this solvent for water. […] Theoretically, the same water quantity in ethyl acetate results in higher water activity than in acetonitrile.
Form II is the wet cake out of reaction mixture unexposed to moisture. Section 3.3.2.3 (reactive crystallization) describes the procedure of making Form II. FIG. 15 illustrates the XRPD of Form II. For XRPD analysis, a silicon plate with dome was used to prevent exposure to ambient. Form III is the result of drying of any of the solid forms. […] Due to instability, some peaks might be shifted if the same sample is repeated multiple times. FIG. 16 illustrates the XRPD of Form III. For XRPD analysis, a silicon plate with dome was used to prevent exposure to ambient. Form IV is the wet cake from slurrying all the solid forms in acetonitrile for at least 5 days and at room temperature. This form is unstable and upon exposure to moisture, it converts to Form I. FIG. 17 illustrates the XRPD of Form IV. For XRPD analysis, a silicon plate with dome was used to prevent exposure to ambient. […]

[3] = Air oxidation of the Mn(II) form
Method: Without being bound to any particular theory, the chemistry occurring when the pH of the 75 mg/mL solution rises from 4 to 9 over the 16-24 hour period may result from the presence of different oxidation states of Mn(II) and (III).
One proton is consumed per one molecule of Mn (II) porphyrin complex in the oxidation process. In the absence of acid (for example in WFI water) the oxidation process is expected to be slower and generates hydroxyl-ions: […]

Molecule: CCn1cc[n+](CC)c1-c1c2nc(c(-c3n(CC)cc[n+]3CC)c3ccc([n-]3)c(-c3n(CC)cc[n+]3CC)c3nc(c(-c4n(CC)cc[n+]4CC)c4ccc1[n-]4)C=C3)C=C2.O.[Cl-].[Cl-].[Cl-].[Cl-].[Cl-].[Mn+3] [Form I, [5,10,15,20-tetrakis(1,3-diethylimidazolium-2-yl)porphyrinato]manganese(III) chloride hydrate complex]
- % water uptake ([1]; relative humidity 20 %): 13.50%
- % water uptake ([1]; relative humidity 40 %): 15.01%
- % water uptake ([1]; relative humidity 75 %): 16.83%
- % water uptake ([1]; relative humidity 80 %): 19.06%
- stability of crystal form ([2]; ambient conditions and relative humidity as low as 15%): stable
- relative stability among crystal forms ([2]; competitive slurry of forms I, II, III, V, VI and VII, exposure to moisture): most stable crystal form
- stability under grinding conditions ([2]; dry and wet grinding, mortar and pestle, ambient, relative humidity 50-60%): pretty stable
- relative humidity up to which the form kept its integrity ([2]; vapor diffusion, 6 days exposure, saturated potassium chloride): up to 85%

Molecule: CCn1cc[n+](CC)c1-c1c2nc(c(-c3n(CC)cc[n+]3CC)c3ccc([n-]3)c(-c3n(CC)cc[n+]3CC)c3nc(c(-c4n(CC)cc[n+]4CC)c4ccc1[n-]4)C=C3)C=C2.O.[Cl-].[Cl-].[Cl-].[Cl-].[Cl-].[Mn+3] [Form III, [5,10,15,20-tetrakis(1,3-diethylimidazolium-2-yl)porphyrinato]manganese(III) chloride hydrate complex]
- % water uptake ([1]; relative humidity 2 %): 0.00%
- stability of crystal form upon exposure to moisture [2]: unstable and rapidly converts to Form I
- time to full conversion to Form I ([2]; dry solid exposed to ambient at RH of 54%): less than half an hour

Molecule: CCn1cc[n+](CC)c1-c1c2nc(c(-c3n(CC)cc[n+]3CC)c3ccc([n-]3)c(-c3n(CC)cc[n+]3CC)c3nc(c(-c4n(CC)cc[n+]4CC)c4ccc1[n-]4)C=C3)C=C2.[Mn+2] [Mn(II) form]
- half-life of oxidation by air ([3]; aqueous solution containing 0.1% TFA): 5 to 7 min
- stability in air ([3]; solid state): relatively stable

Molecule: [5,10,15,20-tetrakis(1,3-diethylimidazolium-2-yl)porphyrinato]manganese(III) chloride hydrate complex [Form IV]
- stability of crystal form upon exposure to moisture [2]: unstable
